# Source: PubChem BioAssay AID602427 (Sanford-Burnham Center for Chemical Genomics, 2012)
# Active and inactive are the calls of the source.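 How the source made its calls: active means EC50 at or below 20 micromolar; inactive means the rest.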
# Biological target: Neurotensin receptor type 1 (Homo sapiens) (UniProt P30989)
# Test: NTSR1 activation via enzyme-fragment complementation – cell-based, luminescence, CHO-K1 NTSR1 PathHunter, orthogonal assay for NTR1 agonist project, SAR follow-up (AID 602427);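 further: agonist potency for NTR1 activation where higher luminescence means more arrestin recruitment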
# Conditions: CHO-K1 NTSR1 PathHunter beta-arrestin
# Sequence of Neurotensin receptor type 1 (Homo sapiens) (P30989 whole entry, looked up, the tested form may be a part): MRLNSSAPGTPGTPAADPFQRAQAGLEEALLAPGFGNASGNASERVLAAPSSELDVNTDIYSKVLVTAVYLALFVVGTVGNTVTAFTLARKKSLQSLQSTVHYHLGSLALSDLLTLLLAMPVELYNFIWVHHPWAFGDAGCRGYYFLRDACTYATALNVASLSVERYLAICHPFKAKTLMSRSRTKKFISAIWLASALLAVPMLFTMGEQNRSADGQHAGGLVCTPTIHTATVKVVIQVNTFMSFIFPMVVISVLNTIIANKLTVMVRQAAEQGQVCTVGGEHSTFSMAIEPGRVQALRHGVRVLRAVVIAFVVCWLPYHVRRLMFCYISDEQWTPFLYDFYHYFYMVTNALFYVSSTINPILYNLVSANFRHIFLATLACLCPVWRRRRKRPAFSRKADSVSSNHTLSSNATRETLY
row,EC50,Compound
1,> 33 µM (inactive),COc1cc2c3nnc(-c4ccc(F)cc4)c-3cn(Cc3ccccn3)c2cc1OC
2,> 33 µM (inactive),COc1ccc(-c2nnc3c4cc(OC)c(OC)cc4n(Cc4ccc(F)cc4)cc2-3)cc1
3,> 33 µM (inactive),COc1ccc(-c2nc(C(=O)N[C@@H](CC(C)C)C(=O)O)cn2-c2ccnc3cc(Cl)ccc23)c(OC)c1
4,> 33 µM (inactive),COc1cccc(OC)c1-c1nc(C(=O)N[C@@H](CC(C)C)C(=O)O)cn1-c1ccc(C)cc1
5,> 33 µM (inactive),COc1ccc2c3nnc(-c4ccc(C)cc4)c-3cn(Cc3ccc(C)cc3)c2c1
6,> 33 µM (inactive),COc1ccc(C(=O)c2cn(Cc3ccncc3)c3ccccc3c2=O)cc1
7,6.08 µM,COc1cccc(OC)c1-c1nc(C(=O)N[C@@H](CC(C)C)C(=O)O)cn1-c1cccc2ccccc12
8,> 33 µM (inactive),COc1cc2c3nnc(-c4ccc(F)cc4)c-3cn(Cc3cccc(C)c3)c2cc1OC
9,> 33 µM (inactive),COc1cc2nc(-c3ccccc3)nc(N3CCN(c4ccccc4OC)CC3)c2cc1OC
10,> 33 µM (inactive),CN(C)S(=O)(=O)c1ccc(-c2csc(N/N=C/c3cccc(Cl)c3)n2)cc1
11,> 33 µM (inactive),CN(C)S(=O)(=O)c1ccc(-c2csc(N/N=C/c3ccc(C(C)(C)C)cc3)n2)cc1
12,> 33 µM (inactive),CC(C)C[C@H](NC(=O)c1cn(-c2ccnc3cc(Cl)ccc23)c2ccccc12)C(=O)O
13,> 33 µM (inactive),CCn1cc(C(=O)c2ccc(F)cc2)c(=O)c2cc(OC)c(OC)cc21
14,> 33 µM (inactive),COc1cccc(OC)c1-c1nc(C(=O)NC2(C(=O)O)C3CC4CC(C3)CC2C4)cn1-c1ccnc2cc(Cl)ccc12 (configuration not stated)
15,3.8 µM,COc1cc2nc(C3CC3)nc(N3CCN(c4ccccc4OC)CC3)c2cc1OC
16,> 33 µM (inactive),Clc1cccc(-n2ncc3c(N4CCN(c5ccccc5)CC4)ncnc32)c1
17,> 33 µM (inactive),COc1ccccc1-c1nc(C(=O)N[C@@H](CC(C)C)C(=O)O)cn1-c1ccncc1
18,> 33 µM (inactive),CC(C)C[C@H](NC(=O)c1cn(-c2ccnc3cc(Cl)ccc23)c(-c2c(Cl)cccc2Cl)n1)C(=O)O
19,> 33 µM (inactive),COc1ccccc1-c1cc(C(=O)O)nn1-c1ccnc2cc(Cl)ccc12
20,> 33 µM (inactive),COc1cc2nc(C3CCC3)nc(N3CCN(c4ccccc4F)CC3)c2cc1OC
21,> 33 µM (inactive),COc1ccc(/C=N/Nc2nc(-c3ccc(S(=O)(=O)N(C)C)cc3)cs2)cc1OC
22,> 33 µM (inactive),COc1ccc(C(=O)c2cn(Cc3ccc(OC(F)(F)F)cc3)c3ccccc3c2=O)cc1

row,EC50,Compound
1,> 33 µM (inactive),COc1ccc(-c2nnc3c4ccccc4n(CC4CC4)cc2-3)cc1
2,> 33 µM (inactive),COc1cccc(OC)c1-c1cc(C(=O)N[C@@H](CC(C)C)C(=O)OC(C)(C)C)nn1-c1ccnc2cc(Cl)ccc12
3,> 33 µM (inactive),COc1cc2c(=O)c(C(=O)c3ccc(F)cc3)cn(Cc3ccc(N(C)C)cc3)c2cc1OC
4,> 33 µM (inactive),COc1cc2nc(SCc3ccncc3)n(Cc3cccc(C(F)(F)F)c3)c(=N)c2cc1OC
5,> 33 µM (inactive),COc1cc2c(=O)c(C(=O)c3ccc(F)cc3)cn(Cc3ccncc3)c2cc1OC
6,> 33 µM (inactive),COc1cccc2c(C(=O)N[C@@H](CC(C)C)C(=O)O)cn(-c3ccnc4cc(Cl)ccc34)c12
7,> 33 µM (inactive),COc1cccc(N2CCN(c3nc(C4CCC4)nc4cc(OC)c(OC)cc34)CC2)c1
8,> 33 µM (inactive),Cc1ccc(C)c(-n2ncc3c(N4CCN(c5ccccc5)CC4)ncnc32)c1
9,> 33 µM (inactive),CCOc1cc2nc(-c3ccc(OC)c(OC)c3)nc(N3CCN(c4ccccc4F)CC3)c2cc1OC
10,> 33 µM (inactive),COc1ccc(C(=O)c2cn(Cc3ccccc3)c3ccccc3c2=O)cc1
11,> 33 µM (inactive),COc1cccc(OC)c1-c1cc(C(=O)N[C@@H](CC(C)C)C(=O)O)nn1-c1ccnc2cc(Cl)ccc12
12,> 33 µM (inactive),COc1cc2nc(C3CCC3)nc(N3CCN(c4ccccc4C)CC3)c2cc1OC
13,> 33 µM (inactive),COc1cc2c3nnc(-c4ccc(Cl)cc4)c-3cn(Cc3ccccc3)c2cc1OC
14,> 33 µM (inactive),COc1cc2ncnc(N3CCN(c4ccccc4OC)CC3)c2cc1OC
15,> 33 µM (inactive),Cc1ccc(-c2nnc3c4cc5c(cc4n(Cc4ccccc4)cc2-3)OCO5)cc1
16,> 33 µM (inactive),COc1cc2nc(C)nc(N3CCN(c4ccccc4OC)CC3)c2cc1OC
17,> 33 µM (inactive),COc1cccc(OC)c1-c1cc(C(=O)NC2(C(=O)O)C3CC4CC(C3)CC2C4)nn1-c1ccnc2cc(Cl)ccc12 (configuration not stated)
18,> 33 µM (inactive),Cc1ccc(-c2nnc3c4cc5c(cc4n(Cc4ccc(F)cc4)cc2-3)OCO5)cc1C
19,15.5 µM,COc1ccc(-c2nnc3c4cc(OC)c(OC)cc4n(Cc4ccc(C)cc4)cc2-3)cc1
20,> 33 µM (inactive),CCc1ccc(-c2nnc3c4cc(OC)c(OC)cc4n(Cc4ccc(F)cc4)cc2-3)cc1
21,> 33 µM (inactive),COc1cc2c3nnc(-c4ccccc4)c-3cn(Cc3ccc(F)cc3)c2cc1OC
22,inactive,CCOc1ccc(-c2nnc3c4cc(OC)c(OC)cc4n(Cc4ccc(F)cc4)cc2-3)cc1

row,EC50,Compound
1,> 33 µM (inactive),Cc1ccc(Cn2cc3c(-c4ccc(C)cc4)nnc-3c3cc4c(cc32)OCO4)cc1
2,inactive,COc1cc2c3nnc(-c4ccc(C)cc4)c-3cn(Cc3ccccc3)c2cc1OC
3,> 33 µM (inactive),COc1ccc(C(=O)c2cn(Cc3ccc(N(C)C)cc3)c3ccccc3c2=O)cc1
4,> 33 µM (inactive),COc1cc2nc(Cc3ccccc3)nc(N3CCN(c4ccccc4OC)CC3)c2cc1OC
5,> 33 µM (inactive),COc1cccc(OC)c1-c1cc(C(=O)NC2(C(=O)O)C3CC4CC(C3)CC2C4)nn1-c1ccc(C(=O)N(C)CCCN(C)C)cc1C(C)C (configuration not stated)
6,> 33 µM (inactive),Cc1ccc(-n2ncc3c(N4CCN(c5ccc([N+](=O)[O-])cc5)CC4)ncnc32)c(C)c1
7,> 33 µM (inactive),COc1ccc(C(=O)c2cn(CC3CC3)c3ccccc3c2=O)cc1
8,> 33 µM (inactive),COc1cccc(OC)c1-c1nc(C(=O)O)cn1-c1ccncc1
9,> 33 µM (inactive),CN(C)S(=O)(=O)c1ccc(-c2csc(N/N=C/c3ccco3)n2)cc1
10,> 33 µM (inactive),COc1cc2c(=O)c(C(=O)c3ccc(F)cc3)cn(Cc3ccc(OC(F)(F)F)cc3)c2cc1OC
11,> 33 µM (inactive),COc1ccc(/C=N/Nc2nc(-c3ccc(S(=O)(=O)N(C)C)cc3)cs2)cc1
12,> 33 µM (inactive),CN(C)S(=O)(=O)c1ccc(-c2csc(N/N=C/c3ccccc3)n2)cc1
13,> 33 µM (inactive),COc1ccc(-c2nnc3c4ccccc4n(CCc4ccccc4)cc2-3)cc1
14,> 33 µM (inactive),COc1ccc(Cn2cc3c(-c4ccc(OC)cc4)nnc-3c3ccccc32)cc1
15,> 33 µM (inactive),COc1cc2c3nnc(-c4ccc(F)cc4)c-3cn(CCc3ccccc3)c2cc1OC
16,inactive,COc1cc2c3nnc(-c4ccc(C)c(C)c4)c-3cn(Cc3ccc(C)cc3)c2cc1OC
17,> 33 µM (inactive),COc1cc2c3nnc(-c4ccc(C)cc4)c-3cn(Cc3ccc(C)cc3)c2cc1OC
18,> 33 µM (inactive),CCOc1cc2c(N3CCN(c4ccccc4OC)CC3)nc(-c3ccc(OC)c(OC)c3)nc2cc1OC
19,> 33 µM (inactive),Fc1ccc(Cn2cc3c(-c4ccc(F)cc4)nnc-3c3cc4c(cc32)OCO4)cc1
20,> 33 µM (inactive),COc1ccccc1N1CCN(c2nc(C3CCC3)nc3ccccc23)CC1
21,> 33 µM (inactive),Cc1ccc(Cn2cc3c(-c4ccc(F)cc4)nnc-3c3cc4c(cc32)OCO4)cc1
22,> 33 µM (inactive),CCn1cc(C(=O)c2ccc(OC)cc2)c(=O)c2ccccc21

row,EC50,Compound
1,> 33 µM (inactive),COc1ccc(C(=O)c2cn(Cc3ccc(C)cc3)c3ccccc3c2=O)cc1
2,> 33 µM (inactive),Cc1ccc(-n2ncc3c(N4CCN(c5ccccc5)CC4)ncnc32)c(C)c1
3,> 33 µM (inactive),CC(C)C[C@H](NC(=O)c1nc(-c2ccncc2)c(-c2ccccc2)s1)C(=O)O
4,> 33 µM (inactive),COc1ccc(-c2nnc3c4ccccc4n(Cc4ccc(C)cc4)cc2-3)cc1
5,> 33 µM (inactive),COc1cc2c3nnc(-c4ccccc4)c-3cn(Cc3ccccc3)c2cc1OC
6,> 33 µM (inactive),CCN(CC)S(=O)(=O)c1ccc(-c2csc(N/N=C/c3ccco3)n2)cc1
7,> 33 µM (inactive),COc1ccc2c(c1)c(=O)c(C(=O)c1ccc(F)cc1)cn2Cc1ccc(F)cc1
8,> 33 µM (inactive),COc1cc2ncc3c(-c4ccc(F)cc4)n[nH]c3c2cc1OC
9,> 33 µM (inactive),COc1ccc(Cn2c(SCc3ccccc3)nc3cc(OC)c(OC)cc3c2=N)cc1Cl
10,> 33 µM (inactive),O=S(=O)(c1ccc(-c2csc(N/N=C/c3ccco3)n2)cc1)N1CCCC1
11,> 33 µM (inactive),COc1ccc(Cn2cc(C(=O)c3ccc(OC)cc3)c(=O)c3ccccc32)cc1
12,> 33 µM (inactive),COc1cccc(N2CCN(c3ncnc4c3cnn4-c3ccc(C)cc3C)CC2)c1
13,> 33 µM (inactive),COc1cc2c(=O)c(C(=O)c3ccc(F)cc3)cn(CC3CC3)c2cc1OC
14,> 33 µM (inactive),COc1ccccc1-c1cc(C(=O)N[C@@H](CC(C)C)C(=O)OC(C)(C)C)nn1-c1ccnc2cc(Cl)ccc12
15,> 33 µM (inactive),COc1ccc2c(c1)c1nnc(-c3ccc(F)cc3)c-1cn2Cc1ccc(C)cc1
16,inactive,COc1cc2c3nnc(-c4ccc(C)cc4)c-3cn(Cc3ccc(F)cc3)c2cc1OC
17,> 33 µM (inactive),CC(C)C[C@H](NC(=O)c1cn(-c2ccnc3ccccc23)c(-c2ccccc2)n1)C(=O)O
18,0.546 µM,COc1ccccc1-c1cc(C(=O)N[C@@H](CC(C)C)C(=O)O)nn1-c1ccnc2cc(Cl)ccc12
19,> 33 µM (inactive),Cc1ccc(Cn2cc3c(-c4ccc(Cl)cc4)nnc-3c3cc4c(cc32)OCO4)cc1
20,> 33 µM (inactive),Clc1ccc(-n2ncc3c(N4CCN(c5ccccc5)CC4)ncnc32)cc1
21,> 33 µM (inactive),COc1ccccc1N1CCN(c2nc(C3CCC3)nc3cc4c(cc23)OCO4)CC1
